Measured values published in patent publication US20210038587A1, “METHODS AND COMPOSITIONS FOR TREATING NON-ERK MAPK PATHWAY INHIBITOR-RESISTANT CANCERS” (BIOMED VALLEY DISCOVERIES, INC., priority 2013, published 2021).

Assays:
[1] = test system: A375, MIAPaCa-2, HCT116, Colo205, HT-29, and AN3Ca cells; assay: Reverse Phase Protein Analysis (RPPA), all six cell lines; format: cell-based; details: 10 μM, 6 hours
Experimental: (§1) Control wells were treated with DMSO at 0.1% (v/v) for 6 hours prior to cell lysate generation. Samples were then analyzed using reverse-phase protein microarray technology (Theranostics Health).
(§2) Cell lines with common alterations in BRAF and RAS were assayed: BRAF^V600E mutant lines A375, Colo205, and HT29; KRAS^G12C-mutant cell line MIAPACa-2; KRAS^G13D-mutant cell line HCT116; and AN3Ca with atypical HRAS^F82L mutation. Changes in protein levels are shown as a percentage change from dimethyl sulfoxide (DMSO)-treated parental control (FIG. 32A and Table 23).

MIAPaCa-2 = assay: Reverse Phase Protein Analysis (RPPA); format: cell-based; details: MIAPaca2; % change from DMSO (matched cell line)
HT29 = assay: Reverse Phase Protein Analysis (RPPA); format: cell-based; details: % change from DMSO (matched cell line)
Experimental: as §1, §2

AN3Ca = assay: Reverse Phase Protein Analysis (RPPA); format: cell-based; details: % change from DMSO (matched cell line)
Experimental: as §1, §2

Colo205 = assay: Reverse Phase Protein Analysis (RPPA); format: cell-based, human; details: % change from DMSO (matched cell line)

Cn1nccc1Nc1nccc(-c2ccn([C@H](CO)c3ccc(Cl)c(F)c3)c(=O)c2)n1 [GDC-0994]
pERK1/2 (ERK1/2-T202, -Y204) [1]: markedly increased pERK1/2
survival marker pBAD [1]: only modest inhibition of pBAD
Avg (4ebp1 T70) (MIAPaCa-2): −34.01%
Avg (Akt S473) (MIAPaCa-2): 2.24%
Avg (Akt) (MIAPaCa-2): 4.33%
Avg (Bad S136) (MIAPaCa-2): 2.25%
Avg (Bad S155) (MIAPaCa-2): 8.18%
Avg (Bak) (MIAPaCa-2): −8.11%
Avg (Bax) (MIAPaCa-2): 3.48%
Avg (Bcl 2) (MIAPaCa-2): −7.8%
Avg (Bcl2 S70) (MIAPaCa-2): −6.78%
Avg (Bcl 2 T56) (MIAPaCa-2): −2.12%
Avg (Bim) (MIAPaCa-2): 5.07%
Avg (CREB S133) (MIAPaCa-2): −21.37%
Avg (Caspase 3 CL D175) (MIAPaCa-2): 10.47%
Avg (Caspase 7 Cl D198) (MIAPaCa-2): −4.92%
Avg (Chk1) (MIAPaCa-2): 6.56%
Avg (Chk1 S345) (MIAPaCa-2): 32.96%
Avg (Cyclin D1) (MIAPaCa-2): −31.92%
Avg (ERK 1 2) (MIAPaCa-2): −6.88%
Avg (ERK 1 2 T202 Y204) (MIAPaCa-2): 199.59%
Avg (MAK1 S360) (MIAPaCa-2): −5.25%
Avg (Mcl1) (MIAPaCa-2): −1.79%
Avg (Raptor S792) (MIAPaCa-2): 2.18%
Avg (Raptor) (MIAPaCa-2): 22.43%
Avg (Rictor) (MIAPaCa-2): −11.25%
Avg (Stat1) (MIAPaCa-2): 7.4%
Avg (Stat3) (MIAPaCa-2): −9.44%
Avg (bad S112) (MIAPaCa-2): −10.08%
Avg (c Fos) (MIAPaCa-2): −16.12%
Avg (c Myc) (MIAPaCa-2): −7.84%
Avg (mTOR S2448) (MIAPaCa-2): 11.84%
Avg (mTOR S2481) (MIAPaCa-2): 3.65%
Avg (mTOR) (MIAPaCa-2): −9.8%
Avg (p70 S6 Kinase) (MIAPaCa-2): −3.25%
Avg (p90 RSK S380) (MIAPaCa-2): −39.09%
Avg(S6 Ribo Prot S235 236) (MIAPaCa-2): −67.9%
Avg(S6 Ribo Prot S240 244) (MIAPaCa-2): −75.59%
Avg(Tuberin TSC2 Y1571) (MIAPaCa-2): 5.71%
Avg(p70 S6 Kinase S371 S394) (MIAPaCa-2): −14.4%
Avg(p70 S6 Kinase T389 T412) (MIAPaCa-2): −40.99%
Avg (4ebp1 T70) (HT29): 1.95%
Avg (Akt S473) (HT29): −10.5%
Avg (Akt) (HT29): −10.01%
Avg (Bad S136) (HT29): 2%
Avg (Bad S155) (HT29): −6.7%
Avg (Bak) (HT29): 3.56%
Avg (Bax) (HT29): 1.1%
Avg (Bcl 2) (HT29): 18.16%
Avg (Bcl2 S70) (HT29): 10.59%
Avg (Bcl 2 T56) (HT29): 1.61%
Avg (Bim) (HT29): 7.74%
Avg (CREB S133) (HT29): 9.54%
Avg (Caspase 3 CL D175) (HT29): −3.44%
Avg (Caspase 7 Cl D198) (HT29): −0.88%
Avg (Chk1) (HT29): 5.68%
Avg (Chk1 S345) (HT29): 6.88%
Avg (Cyclin D1) (HT29): −35.69%
Avg (ERK 1 2) (HT29): 4.66%
Avg (ERK 1 2 T202 Y204) (HT29): 268.99%
Avg (MAK1 S360) (HT29): −0.04%
Avg (Mcl1) (HT29): 3.71%
Avg (Raptor S792) (HT29): −1.75%
Avg (Raptor) (HT29): −6.85%
Avg (Rictor) (HT29): −10.62%
Avg (Stat1) (HT29): 2.58%
Avg (Stat3) (HT29): −3.69%
Avg (bad S112) (HT29): −12.98%
Avg (c Fos) (HT29): −12.92%
Avg (c Myc) (HT29): 7.56%
Avg (mTOR S2448) (HT29): −11.44%
Avg (mTOR S2481) (HT29): 3.23%
Avg (mTOR) (HT29): 10.45%
Avg (p70 S6 Kinase) (HT29): −2.83%
Avg (p90 RSK S380) (HT29): −30.59%
Avg(S6 Ribo Prot S235 236) (HT29): −41.45%
Avg(S6 Ribo Prot S240 244) (HT29): −21.74%
Avg(Tuberin TSC2 Y1571) (HT29): 11.86%
Avg(p70 S6 Kinase S371 S394) (HT29): −25.73%
Avg(p70 S6 Kinase T389 T412) (HT29): −20.86%
Avg (4ebp1 T70) (AN3Ca): 11.28%
Avg (Akt S473) (AN3Ca): 82.37%
Avg (Akt) (AN3Ca): −26.04%
Avg (Bad S136) (AN3Ca): 0.71%
Avg (Bad S155) (AN3Ca): 17.31%
Avg (Bak) (AN3Ca): 7.33%
Avg (Bax) (AN3Ca): 23.83%
Avg (Bcl 2) (AN3Ca): 7.8%
Avg (Bcl2 S70) (AN3Ca): −0.65%
Avg (Bcl 2 T56) (AN3Ca): 1.23%
Avg (Bim) (AN3Ca): −11.63%
Avg (CREB S133) (AN3Ca): 5.03%
Avg (Caspase 3 CL D175) (AN3Ca): 1.55%
Avg (Caspase 7 Cl D198) (AN3Ca): −15.56%
Avg (Chk1) (AN3Ca): 9.43%
Avg (Chk1 S345) (AN3Ca): 15.46%
Avg (Cyclin D1) (AN3Ca): 0.34%
Avg (ERK 1 2) (AN3Ca): −2.87%
Avg (ERK 1 2 T202 Y204) (AN3Ca): 645.51%
Avg (MAK1 S360) (AN3Ca): 6.84%
Avg (Mcl1) (AN3Ca): −4.16%
Avg (Raptor S792) (AN3Ca): 4.85%
Avg (Raptor) (AN3Ca): −8.05%
Avg (Rictor) (AN3Ca): −9.21%
Avg (Stat1) (AN3Ca): 9.15%
Avg (Stat3) (AN3Ca): −13.05%
Avg (bad S112) (AN3Ca): 2.53%
Avg (c Fos) (AN3Ca): −0.63%
Avg (c Myc) (AN3Ca): 3.99%
Avg (mTOR S2448) (AN3Ca): −2.96%
Avg (mTOR S2481) (AN3Ca): 25.42%
Avg (mTOR) (AN3Ca): −2.85%
Avg (p70 S6 Kinase) (AN3Ca): −3.67%
Avg (p90 RSK S380) (AN3Ca): −29.44%
Avg(S6 Ribo Prot S235 236) (AN3Ca): −30.74%
Avg(S6 Ribo Prot S240 244) (AN3Ca): −23.47%
Avg(Tuberin TSC2 Y1571) (AN3Ca): 25.18%
Avg(p70 S6 Kinase S371 S394) (AN3Ca): 29.09%
Avg(p70 S6 Kinase T389 T412) (AN3Ca): 26.01%
Avg (4ebp1 T70) (Colo205): −36.69%
Avg (Akt S473) (Colo205): 4.45%
Avg (Akt) (Colo205): −11.83%
Avg (Bad S136) (Colo205): 4%
Avg (Bad S155) (Colo205): −9.11%
Avg (Bak) (Colo205): 6.58%
Avg (Bax) (Colo205): 8.2%
Avg (Bcl 2) (Colo205): 17.95%
Avg (Bcl2 S70) (Colo205): −9%
Avg (Bcl 2 T56) (Colo205): −4.6%
Avg (Bim) (Colo205): 20.59%
Avg (CREB S133) (Colo205): −11.85%
Avg (Caspase 3 CL D175) (Colo205): 23.06%
Avg (Caspase 7 Cl D198) (Colo205): 1.37%
Avg (Chk1) (Colo205): 5.06%
Avg (Chk1 S345) (Colo205): 6.08%
Avg (Cyclin D1) (Colo205): −28.02%
Avg (ERK 1 2) (Colo205): −3.33%
Avg (ERK 1 2 T202 Y204) (Colo205): 20.01%
Avg (MAK1 S360) (Colo205): 0.82%
Avg (Mcl1) (Colo205): 2.5%
Avg (Raptor S792) (Colo205): −9.04%
Avg (Raptor) (Colo205): −5.48%
Avg (Rictor) (Colo205): −5.04%
Avg (Stat1) (Colo205): 7.26%
Avg (Stat3) (Colo205): −0.86%
Avg (bad S112) (Colo205): −6.12%
Avg (c Fos) (Colo205): −21.33%
Avg (c Myc) (Colo205): −6.22%
Avg (mTOR S2448) (Colo205): −7.36%
Avg (mTOR S2481) (Colo205): 0.96%
Avg (mTOR) (Colo205): 3.39%
Avg (p70 S6 Kinase) (Colo205): 5.83%
Avg (p90 RSK S380) (Colo205): −57.5%
Avg(S6 Ribo Prot S235 236) (Colo205): −91.19%
Avg(S6 Ribo Prot S240 244) (Colo205): −91.59%
Avg(Tuberin TSC2 Y1571) (Colo205): 0.66%
Avg(p70 S6 Kinase S371 S394) (Colo205): −13.02%
Avg(p70 S6 Kinase T389 T412) (Colo205): −32.2%
